Legend:
Format in all cases: physicochemical
[1] = Amount of cyclization of the precursor under alkaline hydrolysis conditions (HPLC); details: 20° C., first step of cyclization only, % relative to total amount of starting compound
Procedure: Buffer solutions were prepared by dissolving two phosphate or borate buffer tablets (origin: Fluka, Switzerland) in a mixture of 160 ml water and 40 ml acetonitrile, respectively. To determine the exact pH value of the reaction solution, 10 ml of the buffer solutions were diluted with 2 ml of acetonitrile and the pH values measured (on a Mettler Toledo MP220 apparatus with an InLab 410 Ag/AgCl glass electrode) to be 7.62 (phosphate buffer) and 10.47 (borate buffer).
0.2 ml of a solution of 35 to 45 mg of the precursors in 25 ml of acetonitrile were added to 1.0 ml of a buffer solution at 20° C. The mixture was immediately injected in a HPLC apparatus (t=0), eluted at 1 ml/min on a reversed phase column with a mixture of water/acetonitrile containing 0.1% of TFA. Then the decrease of the amount of precursor and the simultaneous formation of the cyclized products was monitored at different time intervals at λ=254 and 280 nm. Chromatograms were recorded on a Macherey-Nagel, Nucleosil® 100-5 C18 column (250×4 mm i.d.) using a water/acetonitrile gradient (70:30 to 20:80 during 20 min) or on a Merck Chromolith™ SpeedROD RP-C18e column (50×4.6 mm i.d.) using a water/acetonitrile gradient (70:30 to 40:60 during 3 min).

[2] = Measure of fragrance release (hydrolysis) by UV spectroscopy; details: phosphate buffer, 20° C., 260-360 nm
Procedure: 2 ml of a precursor solution (35-55 mg in 25 ml of acetonitrile, at 20° C.) were added, at t=0, to 10 ml of a phosphate buffer solution (prepared as described in Example 14).
Hydrolysis was followed by recording the absorption spectra of the reaction mixture at constant time intervals in the range of 260-360 nm with a scanning rate of 960 nm/min until completion of the hydrolysis.

[3] = Amount of perfumery alcohols released by alkaline hydrolysis (HPLC); details: % relative to total amount of starting compound
Procedure: […] To determine the exact pH value of the reaction solution, 10 ml of the buffer solutions were diluted with 2 ml of acetonitrile and the pH values measured (on a Mettler Toledo […]).
About 25 mg of the precursors were placed in 1 ml of a buffer solution, 0.2 ml of acetonitrile was added and the supernatant solution was immediately injected in a […] HPLC apparatus (t=0), eluted at 3 ml/min on a reversed phase column with a mixture of water/acetonitrile containing 0.1% of TFA. The amount of the released alcohol was monitored by HPLC analysis at different time intervals at λ=214 or 254 nm. An external calibration curve for the corresponding alcohol in acetonitrile has been obtained from 4-8 dilutions. Chromatograms were recorded on a Merck Chromolith™ Performance RP-C18e column (100×4.6 mm i.d.) using a water/acetonitrile gradient (100:0 for 0.2 min then to 0:100 during 10 min or 80:20 to 20:80 during 10 min).

CC(C)=CCC/C(C)=C/COC(=O)/C=C\C(=O)NCCNC(=O)/C=C\C(=O)OC/C=C(\C)CCC=C(C)C [Example 1, (6E,11Z,19Z,24E)-2,6,25,29-tetramethyl-9,22-dioxa-14,17-diaza-2,6,11,19,24,28-triaconta-hexaene-10,13,18,21-tetrone]
Amount of cyclized precursor ([1]; pH 7.62, 4.7 h): 97%

CC(C)(Cc1ccccc1)OC(=O)c1ccccc1C(=O)NCCCN(CCCCN(CCCNC(=O)c1ccccc1C(=O)OC(C)(C)Cc1ccccc1)CCCNC(=O)c1ccccc1C(=O)OC(C)(C)Cc1ccccc1)CCCNC(=O)c1ccccc1C(=O)OC(C)(C)Cc1ccccc1 [Example 6b, Dendrimer 4-cascade: 1,4-diaminobutane[4-N,N,N′,N′]:N-(2-[(1,1-dimethyl-2-phenylethoxy)carbonyl]benzoyl)propylamine]
Amount of cyclized precursor ([1]; pH 7.62, 24.6 h): 80% | Hydrolysis followed by UV absorption spectra [2]: verified

dendrimer 16-cascade: 1,4-diaminobutane[4-N,N,N′,N′:(1-azabutylidene)^2:N-(2-[(1,1-dimethyl-2-phenylethoxy)carbonyl]benzoyl)propylamine [Example 8]
Amount of released alcohol ([3]; pH 10.98, 4 d, phosphate-bicarbonate buffer in water/acetonitrile 16:9): 69%

CCCC(Cc1ccccc1)OC(=O)c1ccccc1C(=O)NCCCN(C)CCCNC(=O)c1ccccc1C(=O)OC(CCC)Cc1ccccc1 (racemic) [Example 2b, (±)-bis(1-benzylbutyl)2,2′-(6-methyl-1,11-dioxo-2,6,10-triazaundecane-1,11-diyl)dibenzoate]
Amount of cyclized precursor ([1]; pH 7.62, 2.1 h): 98%

CC(C)(Cc1ccccc1)OC(=O)c1ccccc1C(=O)NCCCCCCCNC(=O)c1ccccc1C(=O)OC(C)(C)Cc1ccccc1 [Example 4, bis(1,1-dimethyl-2-phenylethyl) 2,2′-(1,11-dioxo-2,10-diazaundecane-1,11-diyl)dibenzoate]
Amount of cyclized precursor ([1]; pH 10.47, 3.0 h): 98%

CC(C)(Cc1ccccc1)OC(=O)c1ccccc1C(=O)NCCCN(CCCNC(=O)c1ccccc1C(=O)OC(C)(C)Cc1ccccc1)CCCN(CCCCN(CCCN(CCCNC(=O)c1ccccc1C(=O)OC(C)(C)Cc1ccccc1)CCCNC(=O)c1ccccc1C(=O)OC(C)(C)Cc1ccccc1)CCCN(CCCNC(=O)c1ccccc1C(=O)OC(C)(C)Cc1ccccc1)CCCNC(=O)c1ccccc1C(=O)OC(C)(C)Cc1ccccc1)CCCN(CCCNC(=O)c1ccccc1C(=O)OC(C)(C)Cc1ccccc1)CCCNC(=O)c1ccccc1C(=O)OC(C)(C)Cc1ccccc1 [Example 7]
Amount of released alcohol ([3]; pH 10.47, 2 d): 29%

CN(CCCNC(=O)c1ccccc1C(=O)OC(C)(C)Cc1ccccc1)CCCNC(=O)c1ccccc1C(=O)OC(C)(C)Cc1ccccc1 [Example 3b, bis(1,1-dimethyl-2-phenylethyl) 2,2′-(6-methyl-1,11-dioxo-2,6,10-triazaundecane-1,11-diyl)dibenzoate]
Amount of cyclized precursor ([1]; pH 7.62, 22.4 h): 69% | Hydrolysis followed by UV absorption spectra [2]: verified

C=CC(C)(CCC=C(C)C)OC(=O)c1ccccc1C(=O)NCCCN(C)CCCNC(=O)c1ccccc1C(=O)OC(C)(C=C)CCC=C(C)C (racemic) [Example 5b, (±)-bis(1,5-dimethyl-1-vinyl-4-hexenyl) 2,2′-(6-methyl-1,11-dioxo-2,6,10-triazaundecane-1,11-diyl)dibenzoate]
Amount of cyclized precursor ([1]; pH 7.62, 9.4 h): 72% | Hydrolysis followed by UV absorption spectra [2]: verified

From US20040048754A1, “Compounds for a controlled release of active compounds” (priority 2001, published 2004)
